Source: patent US12599672B2, “KRAS proteolysis targeting chimeras” (PAQ Therapeutics Inc., priority 2023, dated 2026)

Key:
[1] = molecular target: T1, KRAS G12D (Homo sapiens, UniProt P01116, G12D); test: KRAS G12D HiBit assay; format: cell-based; conditions: AsPc-1-KRAS (G12D)-HiBit-KI cell, compound treatment for 24 hours, absolute DC50
T1 construct: AsPc-1-KRAS (G12D)-HiBit-KI cell (Pharmaron); host or cells: AsPc-1-KRAS (G12D)-HiBit-KI cells (HiBiT knock-in at the endogenous KRAS locus)
How it was run: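 HiBiT luminescence, detected by adding lytic buffer, substrate and LgBiT protein, served as the KRAS G12D read-out. Compounds, serially diluted 3-fold over 10 points from 0.3 mM DMSO stock, were on cells for 24 h; percent inhibition normalized to cells given 0.1% DMSO only.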

[2] = molecular target: T2, KRAS G12V (Homo sapiens, UniProt P01116, G12V); test: KRAS G12V HiBit assay; format: cell-based; conditions: SW620-KRAS (G12V)-HiBit-KI cells, compound treatment for 24 hours, class symbols
T2 construct: SW620-KRAS (G12V)-HiBit-KI cell (Pharmaron); host or cells: SW620-KRAS (G12V)-HiBit-KI cells (HiBiT knock-in at the endogenous KRAS locus)
How it was run: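 Luminescence from lytic Nano-Glo HiBiT detection with LgBiT read KRAS G12V levels after 24 h compound exposure. Dilutions were 10-point, 3-fold, from a 0.3 mM DMSO stock. Degradation activity was normalised to cells given 0.1% DMSO alone.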

[3] = numeric bounds given in place of class symbols

T2 sequence (P01116 1-188 isoform P01116-2 G12V): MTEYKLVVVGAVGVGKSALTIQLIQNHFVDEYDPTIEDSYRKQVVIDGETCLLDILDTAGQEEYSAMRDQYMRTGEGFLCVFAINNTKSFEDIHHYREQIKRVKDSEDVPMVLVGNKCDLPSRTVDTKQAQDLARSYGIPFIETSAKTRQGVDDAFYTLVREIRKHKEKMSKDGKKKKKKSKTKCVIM
T1 sequence (P01116 1-188 isoform P01116-2 G12D): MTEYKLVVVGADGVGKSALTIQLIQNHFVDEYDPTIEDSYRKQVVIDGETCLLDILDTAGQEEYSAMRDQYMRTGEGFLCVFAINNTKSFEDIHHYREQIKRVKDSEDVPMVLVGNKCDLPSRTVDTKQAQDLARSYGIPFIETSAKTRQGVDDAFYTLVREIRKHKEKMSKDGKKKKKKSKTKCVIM

Row | SMILES | DC50 [1, 3] [nM] | DC50 [2] [nM] | DC50 ([1]; class symbols) [nM]
1 | Cn1c(=O)n(C2CCC(=O)NC2=O)c2cc(C3CCN(CC4CCN(C(=O)CN5CCN(c6nccc(-c7noc([C@@]8(C)CCCc9sc(N)c(C#N)c98)n7)n6)CC5)CC4)CC3)ccc21 (stereo partly shown) [Compound 223] | > 231 | > 100 | 
2 | Cn1c(=O)n(C2CCC(=O)NC2=O)c2cccc(C3CCN(CC4CCN(C(=O)CN5CCN(c6nccc(-c7noc([C@@]8(C)CCCc9sc(N)c(C#N)c98)n7)n6)CC5)CC4)CC3)c21 (stereo partly shown) [Compound 222] |  | > 100 | > 300
3 | C#Cc1c(F)ccc2cc(O)cc(-c3ncc4c(N5CCC[C@@](C)(O)C5)nc(OC[C@@]56CCCN5[C@H](COC(=O)N5CCC(N7CCC(c8ccc9c(c8)n(C)c(=O)n9C8CCC(=O)NC8=O)CC7)CC5)CC6)nc4c3F)c12 (stereo partly shown) [Compound 129] |  | > 100 | > 300
4 | CCc1c(F)ccc2cc(O)cc(-c3ncc4c(N5CCC[C@@](C)(O)C5)nc(OC[C@@]56CCCN5[C@H](COC(=O)N5CCC(CN7CC(c8ccc9c(c8)n(C)c(=O)n9C8CCC(=O)NC8=O)C7)CC5)CC6)nc4c3F)c12 (stereo partly drawn) [Compound 395, ((3S,7aS)-7a-(((7-(8-ethyl-7-fluoro-3-hydroxynaphthalen-1-yl)-8-fluoro-4-((R)-3-hydroxy-3-methylpiperidin-1-yl)pyrido[4,3-d]pyrimidin-2-yl)oxy)methyl)hexahydro-1H-pyrrolizin-3-yl)methyl 4-((3-(1-(2,6-dioxopiperidin-3-yl)-3-methyl-2-oxo-2,3-dihydro-1H-benzo[d]imidazol-5-yl)azetidin-1-yl)methyl)piperidine-1-carboxylate] |  | 10 to 100 | < 100
5 | CCc1c(F)ccc2cc(O)cc(-c3ncc4c(N5CCC[C@H]5CO)nc(OC[C@@]56CCCN5[C@H](COC(=O)N5CCC7(CC5)CC(N5CCC(c8ccc9c(c8)n(C)c(=O)n9C8CCC(=O)NC8=O)CC5)C7)CC6)nc4c3F)c12 (stereo partly drawn) [Compound 351, ((3S,7aS)-7a-(((7-(8-ethyl-7-fluoro-3-hydroxynaphthalen-1-yl)-8-fluoro-4-((S)-2-(hydroxymethyl)pyrrolidin-1-yl)pyrido[4,3-d]pyrimidin-2-yl)oxy)methyl)hexahydro-1H-pyrrolizin-3-yl)methyl 2-(4-(1-(2,6-dioxopiperidin-3-yl)-3-methyl-2-oxo-2,3-dihydro-1H-benzo[d]imidazol-5-yl)piperidin-1-yl)-7-azaspiro[3.5]nonane-7-carboxylate] |  | < 10 | < 100
6 | C#Cc1c(F)ccc2cccc(-c3ncc4c(N5CCC[C@@](C)(O)C5)nc(OC[C@@]56CCCN5[C@H](COC(=O)N5CCC(COC7CN(c8ccc9c(c8)n(C)c(=O)n9C8CCC(=O)NC8=O)C7)CC5)CC6)nc4c3F)c12 (stereo partly shown) [Compound 153] | > 100 | > 100 | 
7 | CCc1c(F)ccc2cc(O)cc(-c3ccc4c(N5CCC[C@@](C)(O)C5)nc(OC[C@]56CCCN5[C@H](COC(=O)N5CCC(CN7CCC(c8ccc9c(c8)n(C)c(=O)n9C8CCC(=O)NC8=O)CC7)CC5)CC6)nc4c3F)c12 (stereo partly drawn) [Compound 318, ((3S,7aR)-7a-(((7-(8-ethyl-7-fluoro-3-hydroxynaphthalen-1-yl)-8-fluoro-4-((R)-3-hydroxy-3-methylpiperidin-1-yl)quinazolin-2-yl)oxy)methyl)hexahydro-1H-pyrrolizin-3-yl)methyl 4-((4-(1-(2,6-dioxopiperidin-3-yl)-3-methyl-2-oxo-2,3-dihydro-1H-benzo[d]imidazol-5-yl)piperidin-1-yl)methyl)piperidine-1-carboxylate] | > 100 | > 100 | 
8 | C#Cc1c(F)ccc2cccc(-c3ncc4c(N5CCC[C@@](C)(O)C5)nc(OCC5(CN6CCC(N7CCC(c8ccc9c(C%10CCC(=O)NC%10=O)nn(C)c9c8)CC7)CC6)CC5)nc4c3F)c12 (stereo partly shown) [Compound 57] |  | > 100 | < 100
9 | C#Cc1c(F)ccc2cc(O)cc(-c3ncc4c(N5CCC[C@@](C)(O)C5)nc(OC[C@@]56CCCN5[C@H](COC(=O)N5CCC(CN7CCC(c8cccc9c8n(C)c(=O)n9C8CCC(=O)NC8=O)CC7)CC5)CC6)nc4c3F)c12 (stereo partly shown) [Compound 133] |  | 10 to 100 | < 100
10 | C#Cc1c(F)ccc2cc(O)cc(-c3ncc4c(N5CCC[C@@](C)(O)C5)nc(OCC5(CN6CCN(CCN7CCN(c8ccc9c(c8)n(C)c(=O)n9C8CCC(=O)NC8=O)CC7)CC6)CC5)nc4c3F)c12 (stereo partly shown) [Compound 28] |  | > 100 | < 100
11 | C#Cc1c(F)ccc2cccc(-c3ncc4c(N5CCC[C@@](C)(O)C5)nc(OC[C@@]56CCCN5[C@H](COC(=O)N5CCC(C7CCN(c8ccc9c(c8)n(C)c(=O)n9C8CCC(=O)NC8=O)CC7)CC5)CC6)nc4c3F)c12 (stereo partly shown) [Compound 152] | > 100 | > 100 | 

Further lines, results first:

Row | DC50 [1, 3] [nM] | DC50 [2] [nM] | DC50 ([1]; class symbols) [nM] | SMILES
12 | > 100 | > 100 |  | CCc1c(F)ccc2cc(O)cc(-c3ncc4c(N5CCC[C@@](C)(O)C5)nc(OC[C@@]56CCCN5[C@H](CN5CCC(OCCCc7ccc8c(c7)n(C)c(=O)n8C7CCC(=O)NC7=O)CC5)CC6)nc4c3F)c12 (stereo partly drawn) [Compound 486, 3-(5-(3-((1-(((3S,7aS)-7a-(((7-(8-ethyl-7-fluoro-3-hydroxynaphthalen-1-yl)-8-fluoro-4-((R)-3-hydroxy-3-methylpiperidin-1-yl)pyrido[4,3-d]pyrimidin-2-yl)oxy)methyl)hexahydro-1H-pyrrolizin-3-yl)methyl)piperidin-4-yl)oxy)propyl)-3-methyl-2-oxo-2,3-dihydro-1H-benzo[d]imidazol-1-yl)piperidine-2,6-dione]
13 |  | < 10 | < 100 | CCc1c(F)ccc2cc(O)cc(-c3ncc4c(N5CCC[C@@](C)(O)C5)nc(OC[C@@]56CCCN5[C@H](COC(=O)N5CC7CC(C5)C7CN5CCC(c7ccc8c(c7)n(C)c(=O)n8C7CCC(=O)NC7=O)CC5)CC6)nc4c3F)c12 (stereo partly drawn) [Compound 400, ((3S,7aS)-7a-(((7-(8-ethyl-7-fluoro-3-hydroxynaphthalen-1-yl)-8-fluoro-4-((R)-3-hydroxy-3-methylpiperidin-1-yl)pyrido[4,3-d]pyrimidin-2-yl)oxy)methyl)hexahydro-1H-pyrrolizin-3-yl)methyl 6-((4-(1-(2,6-dioxopiperidin-3-yl)-3-methyl-2-oxo-2,3-dihydro-1H-benzo[d]imidazol-5-yl)piperidin-1-yl)methyl)-3-azabicyclo[3.1.1]heptane-3-carboxylate]
14 | > 100 | > 100 |  | CCc1c(F)ccc2cc(O)cc(-c3ncc4c(N5CCC[C@@](C)(O)C5)nc(OC[C@@]56CCCN5C(COCCCN5CCC(c7ccc8c(c7)n(C)c(=O)n8C7CCC(=O)NC7=O)CC5)CC6)nc4c3F)c12 (stereo partly drawn) [Compound 490, 3-(5-(1-(3-(((7aS)-7a-(((7-(8-ethyl-7-fluoro-3-hydroxynaphthalen-1-yl)-8-fluoro-4-((R)-3-hydroxy-3-methylpiperidin-1-yl)pyrido[4,3-d]pyrimidin-2-yl)oxy)methyl)hexahydro-1H-pyrrolizin-3-yl)methoxy)propyl)piperidin-4-yl)-3-methyl-2-oxo-2,3-dihydro-1H-benzo[d]imidazol-1-yl)piperidine-2,6-dione]
15 |  | < 10 | < 100 | CCc1cccc2cc(O)cc(-c3cc4nc(OC[C@@]56CCCN5[C@H](COC(=O)N5CCC7(CC5)CC(N5CCC(c8ccc9c(c8)n(C)c(=O)n9C8CCC(=O)NC8=O)CC5)C7)CC6)nc(N5CCC[C@@](C)(O)C5)c4cn3)c12 (stereo partly drawn) [Compound 487, ((3S,7aS)-7a-(((7-(8-ethyl-3-hydroxynaphthalen-1-yl)-4-((R)-3-hydroxy-3-methylpiperidin-1-yl)pyrido[4,3-d]pyrimidin-2-yl)oxy)methyl)hexahydro-1H-pyrrolizin-3-yl)methyl 2-(4-(1-(2,6-dioxopiperidin-3-yl)-3-methyl-2-oxo-2,3-dihydro-1H-benzo[d]imidazol-5-yl)piperidin-1-yl)-7-azaspiro[3.5]nonane-7-carboxylate]
16 |  | < 10 | < 100 | CCc1c(F)ccc2cc(O)cc(-c3ncc4c(N5CCC[C@@](C)(O)C5)nc(OC[C@@]56CCCN5[C@H](COC(=O)N5CCC(C)(CN7CCN(c8ccc9c(c8)n(C)c(=O)n9C8CCC(=O)NC8=O)CC7)CC5)CC6)nc4c3F)c12 (stereo partly drawn) [Compound 502, ((3S,7aS)-7a-(((7-(8-ethyl-7-fluoro-3-hydroxynaphthalen-1-yl)-8-fluoro-4-((R)-3-hydroxy-3-methylpiperidin-1-yl)pyrido[4,3-d]pyrimidin-2-yl)oxy)methyl)hexahydro-1H-pyrrolizin-3-yl)methyl 4-((4-(1-(2,6-dioxopiperidin-3-yl)-3-methyl-2-oxo-2,3-dihydro-1H-benzo[d]imidazol-5-yl)piperazin-1-yl)methyl)-4-methylpiperidine-1-carboxylate]
17 | > 100 | > 100 |  | CCc1c(F)ccc2cc(O)cc(-c3ncc4c(N5CCC[C@@](C)(O)C5)nc(OC[C@@]56CCCN5[C@H](COC(=O)N5CCC(C#Cc7cccc8c7n(C)c(=O)n8C7CCC(=O)NC7=O)CC5)CC6)nc4c3F)c12 (stereo partly drawn) [Compound 403, ((3S,7aS)-7a-(((7-(8-ethyl-7-fluoro-3-hydroxynaphthalen-1-yl)-8-fluoro-4-((R)-3-hydroxy-3-methylpiperidin-1-yl)pyrido[4,3-d]pyrimidin-2-yl)oxy)methyl)hexahydro-1H-pyrrolizin-3-yl)methyl 4-((1-(2,6-dioxopiperidin-3-yl)-3-methyl-2-oxo-2,3-dihydro-1H-benzo[d]imidazol-4-yl)ethynyl)piperidine-1-carboxylate]
